Source: patent US20240228493A1, “LRRK2 INHIBITORS AND USES THEREOF” (NEURON23, ICN., priority 2022, published 2024)

Assays:
[1] = biological target: T1, wt human LRRK2, catalytic site (Homo sapiens, UniProt Q5S007); assay: TR-FRET LanthaScreen Tb Kinase Activity Assay, LRRK2 inhibition; type: biochemical; conditions: 2 nM wt human LRRK2, 400 nM peptide, 38 μM ATP
T1 construct: wt human LRRK2, catalytic site, catalytic site (ThermoFisher/USA); purchased ThermoFisher
Summary of the method: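 Fluorescein-ERM (LRRKtide) peptide (400 nM) phosphorylated by 2 nM wt human LRRK2 catalytic site with 38 μM ATP in 1× Kinase Buffer A, 120 min at room temperature after 15 min compound–kinase preincubation. EDTA plus Tb-anti-pLRRKtide antibody added, read after 60 min; inhibition from TR-FRET emission ratios.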

[2] = Brain penetration (Kp,uu) in CD-1 mice after single IV bolus, with plasma and brain binding by equilibrium dialysis; type: in vivo; conditions: mouse, brain and plasma (unbound brain/unbound plasma), male CD-1 mice, single IV bolus 1 mg/kg
Protocol: The compounds disclosed herein were tested on CD-1 mice for brain penetration (Kp, uu) according to the following procedures.
Nine male CD-1 mice were administered TEST COMPOUND by single intravenous bolus administration at 1 mg/kg. The vehicle used for IV study was 5% DMSO, 5% solutol, 20% PEG300 and 70% water. The detailed dosing and sampling regimens are described in the following tables.
The body weights were in the range from 28.81 to 31.25 g for males on the first dosing day. All animals received a single intravenous bolus administration of TEST COMPOUND from the tail vein.
Each blood collection (about 0.06 mL per time point) was performed from saphenous vein of each animal into pre-chilled commercial K2-EDTA tubes as anti-coagulant and placed on wet ice until centrifugation.
Brain tissue was homogenized using homogenizing buffer (15 mM PBS (pH7.4): MeOH=2:1) at the ratio of 1:9 (1 g tissue with 9 mL buffer, the dilution ratio is 10). The tissue homogenate was kept at −60° C. or lower until LC-MS/MS analysis.
The concentrations of TEST COMPOUND in plasma and brain were determined by using an LC-MS/MS method.
The plasma and brain concentration of TEST COMPOUND in study animals was subjected to a non-compartmental pharmacokinetic analysis by using the Phoenix WinNonlin software program (version 6.3 or above, Pharsight). The linear/log trapezoidal rule was applied in obtaining the PK parameters.
Mouse Kp, uu=(% free in mouse brain*concentration in mouse brain)/(% free in mouse plasma*concentration in mouse plasma)
(§1) The dialysis apparatus was assembled according to the manufacturer's instruction. Each Cell was filled with 120 μL of spiked plasma sample and dialyzed against equal volume of dialysis buffer (PBS). The assay was performed in duplicate. The dialysis plates were sealed and incubated in an incubator at 37° C. with 5% CO2 and rotated at 100 rpm for 6 hours. At the end of incubation, the seals were removed and 50 μL of samples from both buffer and plasma chambers were transferred to a 96-well plate.
as §1, with “with 150” for “with 120”, “of brain homogenate” for “of spiked plasma”, “and brain homogenate” for “and plasma”, “transferred into separate tubes on” for “transferred to”, “a” for “a 96-well”

Caco-2 cells = assay: Caco-2 bidirectional permeability; type: in vitro ADME; conditions: for Caco-2 ER: Efflux Ratio=Papp(BA)/Papp(AB); for Caco-2 A2B (10^−6 cm/s): apical to basolateral; for Caco-2 A2B (10^−6 cm/s) / Caco-2 B2A (10^−6 cm/s): 2 hours, pH 7.4; for Caco-2 B2A (10^−6 cm/s): basolateral to apical
Summary of the method: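 Caco-2 monolayers were grown 21–28 days on PET inserts and run in duplicate in HBSS with 10 mM HEPES, pH 7.4. Test compound was dosed bidirectionally at […] for 2 h at 37 °C; quantification was by LC-MS/MS. Papp and efflux ratio (B-A/A-B) were calculated, with lucifer yellow monolayer integrity checks.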

T1 sequence (Q5S007 1879-2138 limits assumed): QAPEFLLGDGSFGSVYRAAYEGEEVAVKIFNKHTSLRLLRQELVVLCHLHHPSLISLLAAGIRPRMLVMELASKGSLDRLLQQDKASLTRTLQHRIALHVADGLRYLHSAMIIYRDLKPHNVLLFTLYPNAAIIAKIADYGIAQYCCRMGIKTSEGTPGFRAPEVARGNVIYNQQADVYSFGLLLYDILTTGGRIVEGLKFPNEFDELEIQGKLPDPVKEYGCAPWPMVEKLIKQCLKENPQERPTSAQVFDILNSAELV

IC50 [1] [nM]	Kp uu [2]	Caco-2 ER (Caco-2 cells)	Caco-2 B2A (10^−6 cm/s) (Caco-2 cells)	SMILES	Caco-2 A2B (10^−6 cm/s) (Caco-2 cells)
1 to 100	< 0.1	L (L (Likely)”: ER≥2.5)	H (H (High permeability)”: A2B (B2A)>5)	Cc1n[nH]c2c1N=C(c1c(F)cccc1F)Nc1ccc(N3CCO[C@H](C(C)(C)O)C3)cc1-2 (single isomer, unassigned) [Example 36]	M (M (Moderate permeability)”: 1≤A2B (B2A)≤5)
1 to 100	< 0.1	L (L (Likely)”: ER≥2.5)	H (H (High permeability)”: A2B (B2A)>5)	Cc1n[nH]c2c1N=C(c1c(F)cccc1F)Nc1cnc(N3C[C@@H]4C[C@H]3CO4)cc1-2 [Example 6, (1S,4S)-5-[8-(2,6-difluorophenyl)-5-methyl-3,4,7,9,12-pentazatricyclo[8.4.0.02,6]tetradeca-1(10),2(6),4,7,11,13-hexaen-13-y1]-2-oxa-5-azabicyclo[2.2.1]heptane]	M (M (Moderate permeability)”: 1≤A2B (B2A)≤5)
< 1	< 0.1	L (L (Likely)”: ER≥2.5)	H (H (High permeability)”: A2B (B2A)>5)	Cc1n[nH]c2c1N=C(c1c(F)cccc1F)Nc1c-2cc(N2CCO[C@@H](CO)C2)nc1C [Example 37, (R)-(4-(5-(2,6-difluorophenyl)-3,7-dimethyl-1,6-dihydropyrazolo[4,3-d]pyrido[4,3-f][1,3]diazepin-9-yl)morpholin-2-y1)methanol]	M (M (Moderate permeability)”: 1≤A2B (B2A)≤5)
< 1	< 0.1	L (L (Likely)”: ER≥2.5)	H (H (High permeability)”: A2B (B2A)>5)	Cc1n[nH]c2c1N=C(c1c(F)cccc1F)Nc1cnc(N3CCS(=O)(=O)CC3)cc1-2 [Example 2, 4-[8-(2,6-difluorophenyl)-5-methyl-3,4,7,9,12-pentazatricyclo[8.4.0.02,6]tetradeca-1(10),2(6),4,7,11,13-hexaen-13-y1]-1,4-thiazinane 1,1-dioxide]	L (L (Low permeability)”: A2B (B2A)<1)
1 to 100	< 0.1	L (L (Likely)”: ER≥2.5)	H (H (High permeability)”: A2B (B2A)>5)	Cc1n[nH]c2c1N=C(c1c(F)cccc1F)Nc1c-2cc(N2CCC(C)(O)CC2)nc1C [Example 41, 1-(5-(2,6-difluorophenyl)-3,7-dimethyl-1,6-dihydropyrazolo[4,3-d]pyrido[4,3-f][1,3]diazepin-9-yl)-4-methylpiperidin-4-ol]	M (M (Moderate permeability)”: 1≤A2B (B2A)≤5)
< 1	< 0.1	L (L (Likely)”: ER≥2.5)	H (H (High permeability)”: A2B (B2A)>5)	[2H]C1([2H])OC([2H])([2H])C([2H])([2H])N(c2cc3c(cn2)NC(c2c(F)cccc2F)=Nc2cn[nH]c2-3)C1([2H])[2H] [Example 20, 2,2,3,3,5,5,6,6-octadeuterio-4-[8-(2,6-difluorophenyl)-3,4,7,9,12-pentazatricyclo[8.4.0.02,6]tetradeca-1(10),2(6),4,7,11,13-hexaen-13-yl]morpholine]	M (M (Moderate permeability)”: 1≤A2B (B2A)≤5)
< 1	< 0.1	L (L (Likely)”: ER≥2.5)	H (H (High permeability)”: A2B (B2A)>5)	Fc1cccc(F)c1C1=Nc2cn[nH]c2-c2cc(N3CCOCC3)ncc2N1 [Example 33, 4-[8-(2,6-difluorophenyl)-3,4,7,9,12-pentazatricyclo[8.4.0.02,6]tetradeca-1(10),2(6),4,7,11,13-hexaen-13-yl]morpholine]	M (M (Moderate permeability)”: 1≤A2B (B2A)≤5)
< 1	< 0.1	L (L (Likely)”: ER≥2.5)	H (H (High permeability)”: A2B (B2A)>5)	[2H]C([2H])([2H])c1n[nH]c2c1N=C(c1c(F)cccc1F)Nc1cnc(N3CCO[C@H](C)C3)cc1-2 [Example 27, (2R)-4-[8-(2,6-difluorophenyl)-5-(trideuteriomethyl)-3,4,7,9,12-pentazatricyclo[8.4.0.02,6]tetradeca-1(10),2(6),4,7,11,13-hexaen-13-y1]-2-methyl-morpholine]	H (H (High permeability)”: A2B (B2A)>5)
< 1	< 0.1	L (L (Likely)”: ER≥2.5)	H (H (High permeability)”: A2B (B2A)>5)	Cc1n[nH]c2c1N=C(c1c(F)cccc1F)Nc1c-2cc(N2CCO[C@@H](C(C)(C)O)C2)nc1C (single isomer, unassigned) [Example 39]	M (M (Moderate permeability)”: 1≤A2B (B2A)≤5)
< 1	< 0.1	L (L (Likely)”: ER≥2.5)	H (H (High permeability)”: A2B (B2A)>5)	Cc1n[nH]c2c1N=C(c1c(F)cccc1F)Nc1cnc(N3CCC[C@@H](C#N)C3)cc1-2 [Example 18, (3R)-1-[8-(2,6-difluorophenyl)-5-methyl-3,4,7,9,12-pentazatricyclo[8.4.0.02,6]tetradeca-1(10),2(6),4,7,11,13-hexaen-13-yl]piperidine-3-carbonitrile]	M (M (Moderate permeability)”: 1≤A2B (B2A)≤5)
< 1	≥ 0.1	L (L (Likely)”: ER≥2.5)	H (H (High permeability)”: A2B (B2A)>5)	Cc1n[nH]c2c1N=C(c1c(F)cccc1F)Nc1cnc(-c3cnn(CC(F)F)c3)cc1-2 [Example 28, 13-[1-(2,2-difluoroethyl)pyrazol-4-y1]-8-(2,6-difluorophenyl)-5-methyl-3,4,7,9,12-pentazatricyclo[8.4.0.02,6]tetradeca-1(10),2(6),4,7,11,13-hexaene]	M (M (Moderate permeability)”: 1≤A2B (B2A)≤5)
< 1	< 0.1	L (L (Likely)”: ER≥2.5)	H (H (High permeability)”: A2B (B2A)>5)	[2H]C1([2H])OC([2H])([2H])C([2H])([2H])N(c2cc3c(cn2)NC(c2c(F)cccc2F)=Nc2c(C)n[nH]c2-3)C1([2H])[2H] [Example 14, 2,2,3,3,5,5,6,6-octadeuterio-4-[8-(2,6-difluorophenyl)-5-methyl-3,4,7,9,12-pentazatricyclo[8.4.0.02,6]tetradeca-1(10),2(6),4,7,11,13-hexaen-13-yl]morpholine]	H (H (High permeability)”: A2B (B2A)>5)
< 1	< 0.1	L (L (Likely)”: ER≥2.5)	H (H (High permeability)”: A2B (B2A)>5)	Fc1cccc(F)c1C1=Nc2c(Cl)n[nH]c2-c2cc(N3CCOCC3)ccc2N1 (single isomer, unassigned) [Example 35, 4-(3-chloro-5-(2,6-difluorophenyl)-1,6-dihydrobenzo[d]pyrazolo[3,4-f][1,3]diazepin-9-y1)morpholine]	H (H (High permeability)”: A2B (B2A)>5)
